Patent publication US8426369B2, “Prevention and treatment of colon cancer” (Rutgers, The State University of New Jersey, priority 2006, dated 2013)
Like-named read-outs stand apart in the source and are kept apart here.

Key:
c-myc = assay: Western blot of c-myc in HT-29 cells; type: cell-based, human; details: 9 h or 18 h, especially at 9 h
Procedure: The cells were incubated with different concentrations of pterostilbene for 1, 2 and 3 days, and cell proliferation was estimated by measuring [^3H]thymidine incorporated into DNA. […] In order to evaluate whether pterostilbene potentiates cell cycle arrest or apoptosis in HT-29 cells, the effect of pterostilbene on the proteins regulating the cell cycle and/or apoptosis pathways was examined. Cells treated with pterostilbene for 9 h or 18 h were harvested and protein samples were analyzed by Western blotting (FIG. 8B).
(§1) The cell culture conditions and the reagents used in this example were described in Example 32. Whole cell extracts were collected after the various treatments and analyzed by western blotting. The protein samples were separated on 4-15% SDS-PAGE gels (Biorad, Hercules, Calif.) followed by transfer to a polyvinylidene fluoride membrane. The membranes were blocked with 5% milk in Tris buffer for 1 h and then incubated with the appropriate primary antibody solutions overnight at 4° C. The membranes were washed with Tris buffer, and incubated with horseradish peroxidase conjugated secondary antibody solutions for 1 h at room temperature.
The protein bands were visualized using a chemiluminescence based kit from Amersham Biosciences (Buckinghamshire, UK). […]

p38 = assay: Western blot of phosphorylated p38 in cytokine-treated HT-29 cells; type: cell-based, human
Procedure: as §1
(§2) The protein bands were visualized using a chemiluminescence based kit from Amersham Biosciences (Buckinghamshire, UK). The primary antibodies against iNOS, COX-2, IκBα, cyclin D1, c-myc (Santa Cruz Bio-technology, Santa Cruz, Calif.), phospho-STAT3, phospho-Erk1/2, phospho-JNK1/2, phospho-p38, phospho-Akt, phospho-ATF2, phospho-Elk1, PARP (Cell Signaling Technology Inc., Beverly, Mass.) and actin (Sigma, St. Louis, Mo.) and secondary antibodies (Santa Cruz Biotechnology, Santa Cruz, Calif.) were used for probing the abundance of the target protein in the samples.

[1] = test system: azoxymethane-induced aberrant crypt foci (ACF); assay: Azoxymethane-induced aberrant crypt foci (ACF) in rat colon, dietary pterostilbene; type: in vivo, male F344 rats; details: for inhibition at 40 ppm: Rattus norvegicus, feed or water, 40 ppm in diet, compared to control diet
Procedure: Weanling male F344 rats were obtained from Charles River Breeding Laboratories (Kingston, N.Y.). All experimental diets were purchased from Research Diets (New Brunswick, N.J.) and stored at 4° C. All animals were randomly distributed by weight into control and experimental groups and housed in plastic cages with filter tops (three per cage) under controlled conditions of a 12-hr light and dark cycle, 50% humidity and 21° C. temperature. Animals had access to food and water at all times. Food cups were replenished with fresh diet two times weekly.
Beginning at 5 weeks of age, all rats were fed the modified American Institute of Nutrition-76A (AIN-76A) diet. At 7 weeks of age, the animals were given s.c. injections of azoxymethane (AOM) (CAS no. 25843-45-2, Ash Stevens, Detroit, Mich.) once weekly for 2 weeks at a dose rate of 15 mg/kg body weight. One day after the second AOM injection, groups of animals (n=9 per group) were maintained on AIN-76A diet alone and AIN-76A diet containing 40 ppm pterostilbene. […] See, e.g., U.S. Application Publication No. US 2006-0057231 A1.
On the average, the animal consumed about 0.6 mg pterostilbene per day. All rats were weighed once weekly until termination of the study at 8 weeks after the second AOM treatment were sacrificed by CO2 asphyxiation. After laparotomy, the entire stomach, small intestine, and large intestine were resected. The organs were opened longitudinally, and the contents were flushed with normal saline.
For the ACF analysis, the colons were fixed flat between two pieces of filter paper in 10% buffered formalin for a minimum of 24 hr. The colons were then cut into 2-cm segments, starting at the anus. They were stained with 0.2% methylene blue in Krebs-Ringer solution for 5-10 min, and were then placed mucosal side up on a microscope slide and observed through a light microscope. ACF were counted and recorded according to standard procedures that are being used routinely in the laboratory. […] The parameters used to assess the aberrant crypts were their occurrence and multiplicity. Crypt multiplicity was determined as the number of crypts in each focus. Multicrypts were categorized as containing up to four or more aberrant crypts/focus.
Total number of ACF/colon and multiple aberrant crypts/focus were counted and the data were analyzed by Student's t-test. The PCNA labeling index (PI) was calculated as the [(number of positive cells)/(total number of cells)]×100 for each field which is averaged to get the PI for each section. The significance of treatment between the groups was analyzed by Student's t-Test.

p-JNK1/2 = assay: Western blot of p-JNK1/2 in cytokine-treated HT-29 cells; type: cell-based, human
Procedure: as §1, §2

p-Akt = assay: Western blot of p-Akt in cytokine-treated HT-29 cells; type: cell-based, human
Procedure: as §1, §2

iNOS = iNOS immunostaining of colon sections; type: in vivo, male F344 rats; details: 40 ppm in diet, AOM-treated rats
Procedure: Animals were treated as described in Example 27. Colon samples from each group were harvested at autopsy and fixed in 10% formalin for 24 hr. They were sectioned into 8 to 10 segments, paraffin embedded, and microtomed into 4 μm thick tissue sections. The slides were incubated overnight at room temperature with antibody to proliferating cell nuclear antigen (PCNA) (1:1000 diluted, BD Pharmingen, San Diego, Calif.), iNOS (1:100 diluted, Santa Cruz Biotechnology, Santa Cruz, Calif.), or mucin MUC2 (1:250 diluted, Santa Cruz Biotechnology, Santa Cruz, Calif.).
The slides were incubated with the biotinylated secondary antibody, and then with avidin/biotinylated peroxidase complex for 30 min at room temperature (Vector Labs, Burlingame, Calif.), and were incubated with […] (DAB) substrate. The sections were then counter-stained with Modified Harris Hematoxylin. The images were taken randomly at 400× using Zeiss AxioCam HRc camera fitted to a Zeiss Axioskope 2 Plus microscope. A positive reaction is noted by a reddish brown precipitate in the nucleus for PCNA, in the cytoplasm for iNOS or in the colon crypts for mucin MUC2.

ATF2 = assay: Western blot of cytokine-induced ATF2 phosphorylation in HT-29 cells; type: cell-based, human; details: cytokine-treated HT-29
Procedure: as §1
as §2, with “samples. […]” for “samples.”

[2] = 40 ppm in AIN-76A diet, 8 weeks after second AOM treatment, Mean ± S.D. (n = 9)

COc1cc(/C=C/c2ccc(O)cc2)cc(OC)c1 [pterostilbene, (E)-4-(3,5-dimethoxystyryl)phenol]
c-myc level (c-myc): effective in reducing | activation of p38 by cytokines (p38): strongly inhibited | >4 ACF/colon [1, 2]: 25.1 ± 5.6 | ACF/colon [1, 2]: 117 ± 12 | inhibition at 40 ppm ([1]; read-out: inhibition of multiple aberrant crypts/focus): 29% | inhibition at 40 ppm ([1]; read-out: inhibition of total ACF/colon): 57% | p-JNK1/2 protein levels (p-JNK1/2): only a small effect | level of p-Akt (p-Akt): did not change | iNOS staining of ACF with moderate dysplasia (iNOS): weak cytoplasmic staining | cytokine-induced activation (phosphorylation) of ATF2 (ATF2): effective in inhibiting
